Assay results taken from ChEMBL document CHEMBL1201862, “PubChem BioAssay data set” (2004).
Values belong to the compound of their own block, whether it stands above or below them. Active and inactive are the calls of the source.

Experiments:
[1] = target: Paired box protein Pax-8 (Homo sapiens, UniProt Q06710); assay: PAX8 transcriptional activity inhibition in RMG-I – RMG-I cells, luciferase, cherry-pick, dose response (AID 687027); assay type: functional, cell-based;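 also: luciferase reporter driven by Pax8 target thyroperoxidase promoter measured by SteadyGlo luminescence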
Paired box protein Pax-8, sequence (Q06710 whole entry): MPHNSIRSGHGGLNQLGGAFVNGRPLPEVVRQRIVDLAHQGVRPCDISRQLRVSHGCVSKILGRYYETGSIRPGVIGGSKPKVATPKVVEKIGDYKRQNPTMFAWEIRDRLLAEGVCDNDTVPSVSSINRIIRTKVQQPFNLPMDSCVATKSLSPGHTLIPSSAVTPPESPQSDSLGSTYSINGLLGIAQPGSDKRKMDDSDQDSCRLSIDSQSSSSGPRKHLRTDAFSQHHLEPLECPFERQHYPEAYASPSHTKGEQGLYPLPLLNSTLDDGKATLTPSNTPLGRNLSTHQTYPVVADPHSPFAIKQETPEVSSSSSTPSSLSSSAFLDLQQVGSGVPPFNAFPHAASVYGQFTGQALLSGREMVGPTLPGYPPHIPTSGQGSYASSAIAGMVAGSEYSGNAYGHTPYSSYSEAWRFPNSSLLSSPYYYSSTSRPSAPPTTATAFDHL

[2] = OVCAR8 cell viability loss – plate reader, dry powder samples, PAX8 project, dose response (AID 743197); assay type: functional, cell-based; details: OVCAR-8
[3] = OV-90 cell viability loss – plate reader, dry powder, SA8, PAX8 inhibitor project, dose response (AID 743149); assay type: functional, cell-based
[4] = COV362 cell viability loss – plate reader, dry powder, SA12, cytotoxicity control for PAX8 inhibitor project, dose response (AID 743144); assay type: functional, cell-based
[5] = COV434 cell viability loss – plate reader, dry powder, SA7, cytotoxicity control for PAX8 inhibitor project, dose response (AID 743145); assay type: functional, cell-based
[6] = PAX5 cellular inhibition readout – cell-based, plate reader, dry powder samples, selectivity assay for PAX8 inhibitor project, dose response (AID 743047); assay type: functional;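 also: HEK293 cells carrying a Pax5 driven CD19 promoter luciferase reporter; potency of inhibitors that lower reporter luminescence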
[7] = PAX8-dependent cell viability loss – plate reader, dry powder, dose response (AID 743049); assay type: functional, cell-based
[8] = inhibitors acting on PAX2 in cells – cell-based, plate reader, dry powder samples, selectivity assay for PAX8 inhibitor project, dose response (AID 743048); assay type: functional;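 also: HEK293 cells carrying a WT1 promoter luciferase reporter driven by expressed Pax2; potency is for inhibition of Pax2 driven reporter signal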
[9] = OVCAR-3 cell viability loss – plate reader, dry powder samples, PAX8 inhibitor project, dose response (AID 743044); assay type: functional, cell-based
[10] = potency of ADAM10 substrate cleavage blockers – biochemical, QFRET, dose response (AID 743254);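 also: ADAM10 enzyme with the DM2 quenched FRET peptide as substrate; EDANS fluorescence gain as the protease cuts the substrate; inhibitor potency against ADAM10 proteolytic activity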
[11] = target: Disintegrin and metalloproteinase domain-containing protein 17 (Homo sapiens, UniProt P78536); assay: inhibition of ADAM17 substrate cleavage – biochemical, quenched FRET substrate, counter-screen for ADAM10 exosite inhibitor project, dose response (AID 743253)
Disintegrin and metalloproteinase domain-containing protein 17, sequence (P78536 whole entry, the tested form may be a part): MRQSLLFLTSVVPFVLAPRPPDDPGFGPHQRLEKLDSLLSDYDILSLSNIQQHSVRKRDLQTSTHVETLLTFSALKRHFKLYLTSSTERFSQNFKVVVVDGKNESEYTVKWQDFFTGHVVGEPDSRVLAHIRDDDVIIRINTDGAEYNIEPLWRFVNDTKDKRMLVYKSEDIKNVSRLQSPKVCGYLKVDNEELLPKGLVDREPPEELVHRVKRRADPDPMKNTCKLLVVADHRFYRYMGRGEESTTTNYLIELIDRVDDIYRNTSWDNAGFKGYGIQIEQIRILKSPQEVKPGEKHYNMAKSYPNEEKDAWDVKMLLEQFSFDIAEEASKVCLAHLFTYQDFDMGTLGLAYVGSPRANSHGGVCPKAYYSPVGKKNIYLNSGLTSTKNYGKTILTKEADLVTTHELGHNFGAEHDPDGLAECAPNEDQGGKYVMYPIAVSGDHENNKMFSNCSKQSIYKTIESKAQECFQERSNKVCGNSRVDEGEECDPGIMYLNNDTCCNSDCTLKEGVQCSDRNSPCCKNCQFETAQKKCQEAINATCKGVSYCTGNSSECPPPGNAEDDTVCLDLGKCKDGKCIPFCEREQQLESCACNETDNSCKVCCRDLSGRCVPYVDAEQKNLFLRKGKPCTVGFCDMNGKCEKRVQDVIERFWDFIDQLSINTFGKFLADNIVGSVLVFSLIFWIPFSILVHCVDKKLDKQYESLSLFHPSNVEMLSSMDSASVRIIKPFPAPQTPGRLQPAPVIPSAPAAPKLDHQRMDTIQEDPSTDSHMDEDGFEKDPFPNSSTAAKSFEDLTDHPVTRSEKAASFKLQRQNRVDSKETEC

[12] = target: Caspase-7 (Homo sapiens, UniProt P55210); assay: caspase-7 enzyme inhibition, selectivity check – biochemical, DEVD-R110 fluorescence, cherry-pick, selectivity assay for caspase-6 inhibitor project, dose response (AID 743295); assay type: functional
Caspase-7, sequence (P55210 24-198 limits assumed): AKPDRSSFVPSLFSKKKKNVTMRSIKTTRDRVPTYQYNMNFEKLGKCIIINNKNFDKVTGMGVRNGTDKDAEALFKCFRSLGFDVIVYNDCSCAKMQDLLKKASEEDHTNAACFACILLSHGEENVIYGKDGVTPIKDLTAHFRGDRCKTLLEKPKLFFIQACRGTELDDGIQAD
Caspase-7, sequence (P55210 207-303 limits assumed): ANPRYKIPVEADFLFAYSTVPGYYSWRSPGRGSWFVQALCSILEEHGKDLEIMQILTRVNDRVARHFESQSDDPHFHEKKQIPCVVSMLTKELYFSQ

[13] = target: Caspase-6 (Homo sapiens, UniProt P55212); assay: inhibition of CASP6 peptide cleavage – biochemical, VEID-R110 fluorescence, cherry-pick, dose response (AID 720632)
Caspase-6, sequence (P55212 24-179 limits assumed): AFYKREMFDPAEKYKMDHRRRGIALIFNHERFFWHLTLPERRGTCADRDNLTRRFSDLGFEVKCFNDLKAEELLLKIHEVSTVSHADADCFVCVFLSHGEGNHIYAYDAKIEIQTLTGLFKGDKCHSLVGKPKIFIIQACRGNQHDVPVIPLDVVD
Caspase-6, sequence (P55212 194-293 limits assumed): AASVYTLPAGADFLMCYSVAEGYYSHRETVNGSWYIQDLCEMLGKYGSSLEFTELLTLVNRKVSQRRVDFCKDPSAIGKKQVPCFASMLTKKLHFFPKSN

[14] = target: Caspase-8 (Homo sapiens, UniProt Q14790); assay: inhibitors of purified CASP8 protease – biochemical, Z-IETD-R110 fluorescence, cherry-picked samples, selectivity assay for caspase-6 inhibitor project, dose response (AID 743294)
Caspase-8, sequence (Q14790 217-374 limits assumed): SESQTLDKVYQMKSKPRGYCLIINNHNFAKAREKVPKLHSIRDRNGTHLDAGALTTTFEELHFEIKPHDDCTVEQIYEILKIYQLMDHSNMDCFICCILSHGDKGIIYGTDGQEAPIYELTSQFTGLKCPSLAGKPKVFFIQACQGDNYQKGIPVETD
Caspase-8, sequence (Q14790 385-479 limits assumed): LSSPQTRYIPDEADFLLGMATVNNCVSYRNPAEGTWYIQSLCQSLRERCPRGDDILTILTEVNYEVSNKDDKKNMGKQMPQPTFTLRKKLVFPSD

[15] = viability loss in HEK293 kidney cells – cell-based, cherry-picks, set 5, cytotoxicity control, dose response (AID 1053117); assay type: functional
[16] = blockers of FN fibrillogenesis by fibroblasts – AH1F cells, Alexa488-FN fluorescence, cherry-picks, dose response (AID 1035475); assay type: functional, cell-based
[17] = general cell-killing toxicity readout – plate reader, dry powder samples, cytotoxicity control for PAX8 inhibitor project, dose response (AID 743021); assay type: functional, cell-based
[18] = A2780 cell killing – plate reader, dry powder samples, cytotoxicity control, dose response (AID 743046); assay type: functional, cell-based
[19] = IGROV1 cell killing – plate reader, dry powder samples, PAX8 inhibitor project, dose response (AID 743043); assay type: functional, cell-based; details: IGROV-1
[20] = target: Endoplasmic reticulum aminopeptidase 1 (Homo sapiens, UniProt Q9NZ08); assay: inhibition of human ERAP1 enzyme activity – biochemical, cherry-pick, set 2, plate reader, dose response (AID 743314)
Endoplasmic reticulum aminopeptidase 1, sequence (Q9NZ08 whole entry): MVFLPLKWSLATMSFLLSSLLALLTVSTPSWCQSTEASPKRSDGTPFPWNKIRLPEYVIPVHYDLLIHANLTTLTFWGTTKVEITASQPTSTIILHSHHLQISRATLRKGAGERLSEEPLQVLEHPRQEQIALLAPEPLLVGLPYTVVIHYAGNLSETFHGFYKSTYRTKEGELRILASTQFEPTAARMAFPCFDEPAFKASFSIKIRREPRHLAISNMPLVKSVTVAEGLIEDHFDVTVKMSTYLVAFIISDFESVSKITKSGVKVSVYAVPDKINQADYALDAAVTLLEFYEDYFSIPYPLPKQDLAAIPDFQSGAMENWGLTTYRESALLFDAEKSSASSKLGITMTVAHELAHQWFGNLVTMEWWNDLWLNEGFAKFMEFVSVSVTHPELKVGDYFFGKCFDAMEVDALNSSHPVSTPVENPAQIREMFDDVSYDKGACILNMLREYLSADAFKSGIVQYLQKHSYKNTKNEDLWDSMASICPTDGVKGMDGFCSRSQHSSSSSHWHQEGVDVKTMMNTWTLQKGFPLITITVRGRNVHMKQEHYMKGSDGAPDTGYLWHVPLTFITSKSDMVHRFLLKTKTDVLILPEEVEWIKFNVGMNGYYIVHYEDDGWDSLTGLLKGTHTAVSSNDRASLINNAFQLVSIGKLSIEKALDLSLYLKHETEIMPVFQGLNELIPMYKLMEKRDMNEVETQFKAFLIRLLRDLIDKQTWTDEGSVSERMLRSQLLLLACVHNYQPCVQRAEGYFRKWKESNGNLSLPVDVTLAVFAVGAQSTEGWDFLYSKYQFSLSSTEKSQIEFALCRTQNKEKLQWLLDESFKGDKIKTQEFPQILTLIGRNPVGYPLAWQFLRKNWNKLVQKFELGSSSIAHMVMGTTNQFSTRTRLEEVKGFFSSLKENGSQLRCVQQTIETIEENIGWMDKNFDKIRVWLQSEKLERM

[21] = target: Potassium channel subfamily K member 3 (Homo sapiens, UniProt O14649); assay: inhibition of human KCNK3 channel flux – CHO cells, FluxOR thallium flux, SAR follow-up (AID 652212); assay type: functional
Potassium channel subfamily K member 3, sequence (O14649 whole entry): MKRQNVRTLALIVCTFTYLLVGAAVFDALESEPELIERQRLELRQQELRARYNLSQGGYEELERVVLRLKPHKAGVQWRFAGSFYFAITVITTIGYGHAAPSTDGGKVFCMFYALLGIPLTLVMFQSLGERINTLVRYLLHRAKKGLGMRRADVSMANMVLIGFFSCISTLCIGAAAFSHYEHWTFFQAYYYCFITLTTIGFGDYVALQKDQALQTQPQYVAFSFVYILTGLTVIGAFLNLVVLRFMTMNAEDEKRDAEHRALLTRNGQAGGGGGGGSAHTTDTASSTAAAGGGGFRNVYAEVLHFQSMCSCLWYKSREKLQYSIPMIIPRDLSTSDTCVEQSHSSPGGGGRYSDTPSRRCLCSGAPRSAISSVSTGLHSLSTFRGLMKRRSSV

[22] = inhibitors of TRPM1-promoter reporter in SK-MEL-5 – cell-based, luciferase, dry powder, set 8, MITF inhibitor project, dose response (AID 624430); assay type: functional
[23] = MITF Orthogonal Assay: SK-MEL-5 CTG Assay Measured in Cell-Based System Using Plate Reader - 2084-02_Inhibitor_Dose_DryPowder_Activity_Set7.; assay type: functional
[24] = MITF: Counter assay: A375 proliferation Measured in Cell-Based System Using Plate Reader - 2084-03_Inhibitor_Dose_DryPowder_Activity_Set8.; assay type: functional; details: A-375
[25] = target: Metabotropic glutamate receptor 5 (Rattus norvegicus, UniProt P31424); assay: Identification of a glycine sulfonamide based non-MPEP site positive allosteric potentiator (PAM) of mGlu5 (calcium_assay).; assay type: functional
Metabotropic glutamate receptor 5, sequence (P31424 whole entry): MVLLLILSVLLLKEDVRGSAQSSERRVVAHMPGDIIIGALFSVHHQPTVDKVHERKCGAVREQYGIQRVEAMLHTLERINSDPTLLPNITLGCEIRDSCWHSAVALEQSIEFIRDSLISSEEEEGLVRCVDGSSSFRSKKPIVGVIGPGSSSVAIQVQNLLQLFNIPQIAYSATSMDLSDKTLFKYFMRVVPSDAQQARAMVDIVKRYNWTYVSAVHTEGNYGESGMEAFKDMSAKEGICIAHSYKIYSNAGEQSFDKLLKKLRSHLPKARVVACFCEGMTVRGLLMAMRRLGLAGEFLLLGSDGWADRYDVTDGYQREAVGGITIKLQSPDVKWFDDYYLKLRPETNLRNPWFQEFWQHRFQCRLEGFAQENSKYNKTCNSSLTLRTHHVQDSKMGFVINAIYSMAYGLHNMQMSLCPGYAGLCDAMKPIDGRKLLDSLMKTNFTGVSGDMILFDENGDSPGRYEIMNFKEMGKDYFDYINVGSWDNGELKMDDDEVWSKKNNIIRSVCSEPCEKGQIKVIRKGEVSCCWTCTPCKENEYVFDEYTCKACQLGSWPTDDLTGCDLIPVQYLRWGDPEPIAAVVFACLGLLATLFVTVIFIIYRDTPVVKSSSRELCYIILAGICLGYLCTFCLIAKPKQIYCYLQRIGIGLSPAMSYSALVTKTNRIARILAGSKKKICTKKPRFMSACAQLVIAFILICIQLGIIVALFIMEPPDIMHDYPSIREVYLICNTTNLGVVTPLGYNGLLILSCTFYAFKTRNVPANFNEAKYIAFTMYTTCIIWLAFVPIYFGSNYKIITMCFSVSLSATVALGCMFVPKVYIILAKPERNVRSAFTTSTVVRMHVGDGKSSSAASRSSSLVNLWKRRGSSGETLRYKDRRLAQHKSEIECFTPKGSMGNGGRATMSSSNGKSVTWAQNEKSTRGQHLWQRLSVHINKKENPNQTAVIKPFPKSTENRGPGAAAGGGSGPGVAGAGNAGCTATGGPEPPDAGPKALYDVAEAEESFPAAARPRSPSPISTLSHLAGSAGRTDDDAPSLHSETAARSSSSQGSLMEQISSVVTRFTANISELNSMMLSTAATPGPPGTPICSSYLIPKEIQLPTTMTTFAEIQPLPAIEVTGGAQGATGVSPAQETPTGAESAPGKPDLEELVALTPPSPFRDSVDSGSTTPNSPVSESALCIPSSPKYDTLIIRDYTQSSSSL

[26] = test system: HEK293; assay: NOD2 signaling inhibitors in MDP-stimulated cells, cell-based, uHTS, luminescence (AID 2001); assay type: functional; details: Homo sapiens
[27] = HGIII-sPLA2 enzyme inhibition potency – biochemical, QFRET, IC50, dose response (AID 743457);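 also: green fluorescence rise as the enzyme cleaves BODIPY PC-A2 in liposomes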
[28] = test system: HEK293; assay: inhibition of NOD1-driven NF-kB reporter – cell-based, luminescence, uHTS, primary screen (AID 1578); assay type: functional; details: Homo sapiens
[29] = test system: HEK293; assay: cells; assay type: functional, cell-based; details: Homo sapiens
[30] = test system: HEK293; assay: cells; details: Homo sapiens
[31] = Trypanosoma cruzi growth suppression in host cells – NIH3T3 host cells, beta-gal luminescence, confirmation (AID 2044); assay type: functional, cell-based;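 also: intracellular parasites grown in NIH/3T3 mouse fibroblasts as host cells; luminescent beta-galactosidase reporter signal from transgenic T. cruzi replicating inside host cells; inhibitors lower the luminescence signal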
[32] = test system: HEK293; assay: cells; assay type: functional, cell-based; details: Homo sapiens; remark: listed apart in the source
[33] = test system: HEK293; assay: cells; assay type: functional, cell-based; details: Homo sapiens; remark: listed apart in the source
[34] = NIH3T3 cell viability loss – ATP luminescence, mouse fibroblasts, counter-screen, dose response (AID 2010); assay type: functional, cell-based;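 also: cells exposed to compound for about 90 hours before reading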

SMILES: N#C[C@H]1[C@H](c2ccc(C#CC3CCCC3)cc2)[C@@H](CO)N1C(=O)Nc1ccc(F)cc1
AC50 [1]: 5.59 µM (active) | AC50 [2]: 27.2 µM (active) | AC50 [3]: 29 µM (active) | AC50 [4]: 32.1 µM (active) | AC50 [5]: 20.4 µM (active) | AC50 [6]: 7.84 µM (active) | AC50 [7]: 19.1 µM (active) | AC50 [8]: 7.21 µM (active) | AC50 [9]: 42.8 µM (active)

IC50 [10]: 11.7 µM (inactive) | IC50 [11]: > 69.5 µM (inactive)
SMILES: Cc1cc(C)cc(NS(=O)(=O)c2ccc(NC(=S)NC(=O)c3ccc(Br)o3)cc2)c1

AC50 [12]: > 22 µM (inactive) | AC50 [13]: 4.26 µM (active) | AC50 [14]: 46.1 µM (active)
SMILES: CCCCN(C(=O)c1cccc(-n2cccc2)c1)c1c(N)n(Cc2ccccc2)c(=O)[nH]c1=O

SMILES: O=S(=O)(c1cccc(F)c1)N1CC[C@H]2[C@H](CO)Nc3ccc(-c4cccc(F)c4)cc3[C@H]21
AC50 [15]: > 52 µM (inactive) | AC50 [16]: 41.9 µM (active)

SMILES: COc1ccc(S(=O)(=O)Nc2ccc3c(c2)C(=O)N([C@H](C)CO)C[C@H](C)[C@@H](CN(C)S(=O)(=O)c2ccc(Cl)cc2)OCCCC[C@H](C)O3)cc1
AC50 [17]: 51.9 µM (active) | AC50 [1]: 7.7 µM (active) | AC50 [2]: > 70 µM (inactive) | AC50 [18]: 21.4 µM (active) | AC50 [19]: 24.8 µM (active) | AC50 [9]: 16 µM (active)

AC50 [20]: 9.24 µM (active)
SMILES: CCNC(=O)[C@@H]1[C@@H](CO)[C@@H]2Cn3c(ccc(/C=C/c4ccccc4)c3=O)[C@H]1N2C(=O)C1CCCC1

IC50 [21]: 0.3 µM (active)
SMILES: CCOc1ccccc1NC(=O)c1cccc(NC(=O)c2ccc(OC)cc2)c1

SMILES: CN1CCN(C2=C(Nc3ccc(I)cc3)C(=O)c3ccccc3C2=O)CC1
AC50 [22]: 7.32 µM (active) | AC50 [23]: 8.33 µM (active) | AC50 [24]: 26 µM (active)

EC50 [25]: > 30 µM (inactive)
SMILES: CC(C)(C)NC(=O)CN(c1cc(C(F)(F)F)ccc1Cl)S(C)(=O)=O

SMILES: Fc1ccc(NC(S)=Nc2nccs2)cc1
IC50 [26]: 6.34 µM (inactive) | IC50 [27]: > 122 µM (inactive) | EC50 [28]: 5.3 µM (active) | IC50 [29]: > 20 µM (inactive) | IC50 [30]: > 20 µM (inactive) | EC50 [31]: 2.79 µM (active) | IC50 [32]: > 20 µM (inactive) | IC50 [33]: > 20 µM (inactive) | EC50 [34]: > 60 µM (inconclusive)
